{
  "source": "ChEMBL document CHEMBL3872283",
  "about": "“Design, Synthesis, and Evaluation of Novel and Selective G-protein Coupled Receptor 120 (GPR120) Spirocyclic Agonists” (ACS Med Chem Lett, 2017)",
  "key": {"[1]": {"experiment": "Protein binding in mouse plasma at 2 mg/kg, iv or 10 mg/kg, po by LC/MS/MS analysis", "type": "ADME, organism-based", "settings": "read-out: PPB (converted)"}, "[2]": {"experiment": "Volume of distribution at steady state in mouse at 2 mg/kg, iv or 10 mg/kg, po by LC/MS/MS analysis", "type": "ADME, organism-based", "settings": "in vivo, read-out: Vdss"}, "[3]": {"experiment": "Plasma clearance in rhesus monkey at 0.5 mg/kg, iv or 1 mg/kg, po by LC/MS/MS analysis", "type": "ADME, organism-based, Macaca mulatta"}, "[4]": {"experiment": "AUC in rhesus monkey at 0.5 mg/kg, iv by LC/MS/MS analysis", "type": "ADME, organism-based, Macaca mulatta", "settings": "in vivo"}, "Mus musculus [5]": {"tested_on": "Mus musculus", "experiment": "Decrease in insulin levels in diet-induced obese mouse at 30 mg/kg, po qd administered daily via gavage for 28 days measured on day 28 post dose", "type": "functional, organism-based"}, "Mus musculus [6]": {"tested_on": "Mus musculus", "experiment": "Antidiabetic activity in diet-induced obese mouse assessed as reduction in homeostatic model assessment of insulin resistance at 30 mg/kg, po qd administered daily via gavage for 14 days measured on day 14 post dose", "type": "functional, organism-based"}, "[7]": {"experiment": "AUC in dog at 1 mg/kg, iv by LC/MS/MS analysis", "type": "ADME, organism-based, Canis lupus familiaris", "settings": "in vivo"}, "Cytochrome P450 2C9": {"biological_target": "Cytochrome P450 2C9 (Homo sapiens, UniProt P11712)", "sequence (P11712 whole entry)": "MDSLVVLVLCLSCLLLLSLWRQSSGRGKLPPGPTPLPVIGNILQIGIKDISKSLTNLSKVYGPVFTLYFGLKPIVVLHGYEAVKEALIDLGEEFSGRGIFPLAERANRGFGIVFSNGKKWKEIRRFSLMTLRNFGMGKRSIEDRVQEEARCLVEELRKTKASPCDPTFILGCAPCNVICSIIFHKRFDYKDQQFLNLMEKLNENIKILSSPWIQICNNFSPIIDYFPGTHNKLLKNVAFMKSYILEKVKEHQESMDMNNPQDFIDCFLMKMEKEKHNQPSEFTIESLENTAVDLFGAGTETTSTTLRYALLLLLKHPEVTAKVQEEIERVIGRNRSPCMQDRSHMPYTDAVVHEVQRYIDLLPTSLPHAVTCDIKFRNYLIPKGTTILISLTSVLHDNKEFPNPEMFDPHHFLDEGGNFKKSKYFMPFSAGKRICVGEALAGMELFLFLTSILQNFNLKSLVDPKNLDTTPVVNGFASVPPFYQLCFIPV", "experiment": "Inhibition of human CYP2C9", "type": "ADME"}, "[8]": {"experiment": "Plasma clearance in rat at 1 mg/kg, iv or 2 mg/kg, po by LC/MS/MS analysis", "type": "ADME, organism-based"}, "[9]": {"experiment": "Oral bioavailability in rhesus monkey at 1 mg/kg by LC/MS/MS analysis", "type": "ADME, organism-based, Macaca mulatta", "settings": "in vivo"}, "[10]": {"experiment": "MRT in mouse at 2 mg/kg, iv or 10 mg/kg, po by LC/MS/MS analysis", "type": "ADME, organism-based", "settings": "in vivo"}, "[11]": {"experiment": "Half life in mouse at 2 mg/kg, iv or 10 mg/kg, po by LC/MS/MS analysis", "type": "ADME, organism-based", "settings": "in vivo"}, "[12]": {"experiment": "Plasma clearance in dog at 1 mg/kg, iv or 2 mg/kg, po by LC/MS/MS analysis", "type": "ADME, organism-based, Canis lupus familiaris"}, "[13]": {"experiment": "Protein binding in rhesus monkey plasma at 0.5 mg/kg, iv or 1 mg/kg, po by LC/MS/MS analysis", "type": "ADME, organism-based, Macaca mulatta", "settings": "read-out: PPB (converted)"}, "[14]": {"experiment": "Oral bioavailability in rat at 2 mg/kg by LC/MS/MS analysis", "type": "ADME, organism-based", "settings": "in vivo"}, "[15]": {"biological_target": "T1, Peroxisome proliferator-activated receptor delta (Homo sapiens) (UniProt Q03181)", "T1 sequence (whole entry)": "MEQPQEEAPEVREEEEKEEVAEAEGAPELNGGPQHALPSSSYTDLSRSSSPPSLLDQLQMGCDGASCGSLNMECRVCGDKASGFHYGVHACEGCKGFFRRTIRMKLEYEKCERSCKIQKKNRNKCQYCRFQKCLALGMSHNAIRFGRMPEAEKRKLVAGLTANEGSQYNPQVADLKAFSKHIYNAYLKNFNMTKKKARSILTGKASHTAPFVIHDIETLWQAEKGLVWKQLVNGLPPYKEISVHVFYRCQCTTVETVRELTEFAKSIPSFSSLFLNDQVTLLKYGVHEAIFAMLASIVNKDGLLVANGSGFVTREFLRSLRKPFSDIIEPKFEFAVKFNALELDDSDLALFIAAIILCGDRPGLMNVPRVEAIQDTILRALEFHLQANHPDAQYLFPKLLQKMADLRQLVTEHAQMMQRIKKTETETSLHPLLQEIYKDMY", "experiment": "Binding affinity to human PPARdelta"}, "Cytochrome P450 3A4": {"biological_target": "Cytochrome P450 3A4 (Homo sapiens, UniProt P08684)", "sequence (P08684 whole entry)": "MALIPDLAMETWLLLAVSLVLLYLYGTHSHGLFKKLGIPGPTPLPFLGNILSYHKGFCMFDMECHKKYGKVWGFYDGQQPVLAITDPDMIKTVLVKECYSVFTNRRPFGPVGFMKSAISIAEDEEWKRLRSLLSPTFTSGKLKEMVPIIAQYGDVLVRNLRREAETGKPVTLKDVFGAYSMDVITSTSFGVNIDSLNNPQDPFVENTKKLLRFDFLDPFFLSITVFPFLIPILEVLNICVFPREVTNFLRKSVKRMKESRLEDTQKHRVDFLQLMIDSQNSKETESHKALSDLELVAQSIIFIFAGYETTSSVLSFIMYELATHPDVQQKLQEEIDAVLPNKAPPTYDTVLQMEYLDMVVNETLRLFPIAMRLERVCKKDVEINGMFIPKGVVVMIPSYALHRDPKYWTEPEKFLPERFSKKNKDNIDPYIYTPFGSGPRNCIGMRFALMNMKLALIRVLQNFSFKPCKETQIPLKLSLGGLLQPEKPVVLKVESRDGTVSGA", "experiment": "Inhibition of human CYP3A4", "type": "ADME"}, "[16]": {"biological_target": "T2, Free fatty acid receptor 4 (Mus musculus, UniProt Q7TMA4)", "T2 sequence (Q7TMA4 whole entry)": "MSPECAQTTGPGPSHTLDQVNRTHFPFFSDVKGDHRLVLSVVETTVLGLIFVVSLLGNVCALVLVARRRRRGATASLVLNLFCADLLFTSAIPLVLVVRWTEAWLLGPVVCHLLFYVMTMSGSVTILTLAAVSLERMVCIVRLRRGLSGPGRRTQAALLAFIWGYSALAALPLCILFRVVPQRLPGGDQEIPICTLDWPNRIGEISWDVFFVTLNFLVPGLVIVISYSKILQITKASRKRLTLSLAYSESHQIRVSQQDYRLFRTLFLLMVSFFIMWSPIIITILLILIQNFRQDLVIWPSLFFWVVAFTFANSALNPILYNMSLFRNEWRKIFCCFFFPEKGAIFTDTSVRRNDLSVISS", "experiment": "Agonist activity at mouse GPR120 expressed in CHOK1 cells assessed as induction of IP1 accumulation after 60 mins by HTRF assay", "type": "functional, cell-based, CHO-K1"}, "[17]": {"biological_target": "T3, Peroxisome proliferator-activated receptor gamma (Homo sapiens) (UniProt P37231)", "T3 sequence (whole entry)": "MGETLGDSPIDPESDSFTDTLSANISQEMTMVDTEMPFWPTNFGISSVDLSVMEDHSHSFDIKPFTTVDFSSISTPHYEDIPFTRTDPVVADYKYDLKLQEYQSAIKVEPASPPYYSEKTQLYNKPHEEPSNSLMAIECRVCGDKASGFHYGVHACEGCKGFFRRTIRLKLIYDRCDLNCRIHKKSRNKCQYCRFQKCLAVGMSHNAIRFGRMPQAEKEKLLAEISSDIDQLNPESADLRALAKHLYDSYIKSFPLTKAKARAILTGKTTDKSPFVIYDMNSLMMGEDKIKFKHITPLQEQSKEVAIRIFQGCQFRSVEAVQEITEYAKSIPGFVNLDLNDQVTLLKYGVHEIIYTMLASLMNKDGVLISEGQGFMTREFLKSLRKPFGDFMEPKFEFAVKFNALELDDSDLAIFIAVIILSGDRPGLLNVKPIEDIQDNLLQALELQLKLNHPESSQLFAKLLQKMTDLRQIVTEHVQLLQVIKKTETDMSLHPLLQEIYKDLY", "experiment": "Displacement of [3H]Rosiglitazone from recombinant human PPARgamma expressed in insect cells"}, "Mus musculus [18]": {"tested_on": "Mus musculus", "experiment": "Antidiabetic activity in diet-induced obese mouse assessed as increase in glucose infusion rate during hyperinsulinemic euglycemic clamp procedure at 30 mg/kg, po qd administered daily via gavage measured after 28 days", "type": "functional, organism-based"}, "Mus musculus [19]": {"tested_on": "Mus musculus", "experiment": "Antidiabetic activity in diet-induced obese mouse assessed as reduction in homeostatic model assessment of insulin resistance at 30 mg/kg, po qd administered daily via gavage for 28 days measured on day 28 post dose", "type": "functional, organism-based"}, "[20]": {"experiment": "Volume of distribution at steady state in dog at 1 mg/kg, iv or 2 mg/kg, po by LC/MS/MS analysis", "type": "ADME, organism-based, Canis lupus familiaris", "settings": "in vivo, read-out: Vdss"}, "[21]": {"experiment": "Antidiabetic activity in C57BL/6 mouse administered 60 mins via oral gavage prior to dextrose challenge measured up to 120 mins post dextrose challenge by oGTT", "type": "functional"}, "[22]": {"experiment": "Half life in dog at 1 mg/kg, iv or 2 mg/kg, po by LC/MS/MS analysis", "type": "ADME, organism-based, Canis lupus familiaris", "settings": "in vivo"}, "[23]": {"experiment": "Protein binding in dog plasma at 1 mg/kg, iv or 2 mg/kg, po by LC/MS/MS analysis", "type": "ADME, organism-based, Canis lupus familiaris", "settings": "read-out: PPB (converted)"}, "[24]": {"biological_target": "Voltage-dependent L-type calcium channel subunit alpha-1C (Homo sapiens, UniProt Q13936)", "sequence (Q13936 whole entry)": "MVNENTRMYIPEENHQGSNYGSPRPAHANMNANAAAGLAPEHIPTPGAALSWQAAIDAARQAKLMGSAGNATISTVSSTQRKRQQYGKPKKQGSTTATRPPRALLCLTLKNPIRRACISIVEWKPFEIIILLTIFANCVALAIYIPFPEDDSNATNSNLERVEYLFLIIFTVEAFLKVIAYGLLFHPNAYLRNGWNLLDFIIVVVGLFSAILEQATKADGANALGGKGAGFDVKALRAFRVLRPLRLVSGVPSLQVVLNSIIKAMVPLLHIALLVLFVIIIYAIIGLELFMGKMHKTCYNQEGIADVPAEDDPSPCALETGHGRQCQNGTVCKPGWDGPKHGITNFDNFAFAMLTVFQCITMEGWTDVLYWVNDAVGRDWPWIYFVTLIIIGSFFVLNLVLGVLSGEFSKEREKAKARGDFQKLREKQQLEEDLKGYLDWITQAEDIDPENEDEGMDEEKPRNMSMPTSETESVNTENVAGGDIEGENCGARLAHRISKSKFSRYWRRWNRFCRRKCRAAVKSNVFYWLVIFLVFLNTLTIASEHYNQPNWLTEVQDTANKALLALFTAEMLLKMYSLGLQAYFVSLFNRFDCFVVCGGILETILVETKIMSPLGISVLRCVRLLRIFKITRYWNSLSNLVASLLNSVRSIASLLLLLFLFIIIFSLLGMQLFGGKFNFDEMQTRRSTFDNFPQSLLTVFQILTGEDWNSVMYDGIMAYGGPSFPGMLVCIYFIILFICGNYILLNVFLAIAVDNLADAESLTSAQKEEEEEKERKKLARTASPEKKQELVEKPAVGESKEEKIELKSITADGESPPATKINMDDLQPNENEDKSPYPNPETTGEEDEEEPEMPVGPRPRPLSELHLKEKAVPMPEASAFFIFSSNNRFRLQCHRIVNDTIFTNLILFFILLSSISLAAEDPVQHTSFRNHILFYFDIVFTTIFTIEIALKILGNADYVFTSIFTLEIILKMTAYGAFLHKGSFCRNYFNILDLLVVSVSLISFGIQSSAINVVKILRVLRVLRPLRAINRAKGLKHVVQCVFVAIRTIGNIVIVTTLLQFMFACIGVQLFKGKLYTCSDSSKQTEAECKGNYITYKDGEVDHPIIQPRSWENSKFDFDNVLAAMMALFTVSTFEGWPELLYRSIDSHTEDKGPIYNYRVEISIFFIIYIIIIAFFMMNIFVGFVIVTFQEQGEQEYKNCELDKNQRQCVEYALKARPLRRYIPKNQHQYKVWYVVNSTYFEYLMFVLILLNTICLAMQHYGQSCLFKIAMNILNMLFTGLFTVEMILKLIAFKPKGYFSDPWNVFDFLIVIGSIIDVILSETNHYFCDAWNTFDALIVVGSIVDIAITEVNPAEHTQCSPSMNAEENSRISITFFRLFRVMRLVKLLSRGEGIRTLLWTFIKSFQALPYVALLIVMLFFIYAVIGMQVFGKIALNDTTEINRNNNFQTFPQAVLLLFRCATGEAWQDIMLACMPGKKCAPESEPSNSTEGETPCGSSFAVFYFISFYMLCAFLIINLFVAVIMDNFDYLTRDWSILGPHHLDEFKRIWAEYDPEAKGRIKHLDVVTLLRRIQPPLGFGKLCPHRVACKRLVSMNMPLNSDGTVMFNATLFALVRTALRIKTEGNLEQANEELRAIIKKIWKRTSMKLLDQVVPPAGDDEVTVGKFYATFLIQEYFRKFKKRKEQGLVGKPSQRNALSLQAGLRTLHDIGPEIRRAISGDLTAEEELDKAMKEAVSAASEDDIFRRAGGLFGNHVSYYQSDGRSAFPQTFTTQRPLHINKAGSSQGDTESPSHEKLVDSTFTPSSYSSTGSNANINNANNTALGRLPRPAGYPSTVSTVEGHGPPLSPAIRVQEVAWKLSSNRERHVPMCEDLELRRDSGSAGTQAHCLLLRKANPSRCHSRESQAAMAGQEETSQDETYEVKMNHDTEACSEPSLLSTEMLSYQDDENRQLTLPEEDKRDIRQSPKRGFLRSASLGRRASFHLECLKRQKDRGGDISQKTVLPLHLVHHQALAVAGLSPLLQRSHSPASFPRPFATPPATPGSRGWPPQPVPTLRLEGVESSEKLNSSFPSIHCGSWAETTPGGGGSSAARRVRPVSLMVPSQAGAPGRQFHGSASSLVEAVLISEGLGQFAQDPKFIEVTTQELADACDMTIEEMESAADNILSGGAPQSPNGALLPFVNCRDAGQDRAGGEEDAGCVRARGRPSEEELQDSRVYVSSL", "experiment": "Inhibition of Cav1.2 (unknown origin)"}, "[25]": {"experiment": "Half life in rhesus monkey at 0.5 mg/kg, iv or 1 mg/kg, po by LC/MS/MS analysis", "type": "ADME, organism-based, Macaca mulatta", "settings": "in vivo"}},
  "note": "Active and inactive are the calls of the source. No cut-off for these calls is given here.",
  "data": [
    {"smiles": "O=C(O)CC1CCC2(CC1)CCN(c1cc(OC(F)(F)F)ccc1Cl)CC2", "values": [
      {"measurement": "fraction unbound", "setting": "[1]", "result": 0.0021},
      {"measurement": "Vd", "setting": "[2]", "result": 8.9, "unit": "L/kg"},
      {"measurement": "clearance", "setting": "[3]", "result": 2.7, "unit": "mL/min/kg"},
      {"measurement": "AUC", "setting": "[4]", "result": 8.7, "unit": "µM·h"},
      {"measurement": "Activity", "setting": "Mus musculus [5]", "result": "Active"},
      {"measurement": "Activity", "setting": "Mus musculus [6]", "result": "Active"},
      {"measurement": "AUC", "setting": "[7]", "result": 4.6, "unit": "µM·h"},
      {"measurement": "INH", "setting": "Cytochrome P450 2C9", "result": "> 48", "unit": "µM"},
      {"measurement": "clearance", "setting": "[8]", "result": 2.3, "unit": "mL/min/kg"},
      {"measurement": "bioavailability", "setting": "[9]", "result": 77, "unit": "%"},
      {"measurement": "MRT", "setting": "[10]", "result": 26.5, "unit": "h"},
      {"measurement": "half-life", "setting": "[11]", "result": 1090, "unit": "min"},
      {"measurement": "clearance", "setting": "[12]", "result": 9.8, "unit": "mL/min/kg"},
      {"measurement": "fraction unbound", "setting": "[13]", "result": 0.0028},
      {"measurement": "bioavailability", "setting": "[14]", "result": 95, "unit": "%"},
      {"measurement": "Activity", "setting": "[15]", "result": "> 10", "unit": "µM"},
      {"measurement": "INH", "setting": "Cytochrome P450 3A4", "result": "> 48", "unit": "µM"},
      {"measurement": "EC50", "setting": "[16]", "result": 33, "unit": "nM"},
      {"measurement": "INH", "setting": "[17]", "result": "> 10", "unit": "µM"},
      {"measurement": "Activity", "setting": "Mus musculus [18]", "result": "Active"},
      {"measurement": "Activity", "setting": "Mus musculus [19]", "result": "Active"},
      {"measurement": "Vd", "setting": "[20]", "result": 6.7, "unit": "L/kg"},
      {"measurement": "Activity", "setting": "[21]", "result": "Dose-dependent effect"},
      {"measurement": "half-life", "setting": "[22]", "result": 660, "unit": "min"},
      {"measurement": "fraction unbound", "setting": "[23]", "result": 0.0015},
      {"measurement": "INH", "setting": "[24]", "result": 21, "unit": "µM"},
      {"measurement": "half-life", "setting": "[25]", "result": 546, "unit": "min"}
    ]}
  ]
}
